Measured values published in article PMC6753678, “Fueling Open Innovation for Malaria Transmission-Blocking Drugs: Hundreds of Molecules Targeting Early Parasite Mosquito Stages” (Frontiers in Microbiology, 2019).
pIC50: −log10 of the molar value. Where two headings read alike, the source gives them in different places.

Key:
HepG2 cells [1] = assay: HepG2 cytotoxicity assay
Outline: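 Cells at 2,500 per well in MEM with 10% fetal bovine serum and 1% NEAA were exposed to test compounds for 48 h at 37°C, 5% CO2. Viability was read by fluorescence, with percent inhibition calculated against 50 μM doxorubicin (positive) and DMSO (negative) controls.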

[2] = system: P. falciparum late stage (stages IV-V) gametocytes; design: method as in Almela et al 2016; conditions: ref Almela et al 2016, read-out: Pf GCT ATP IC50, cited from earlier work
HepG2 cells [3] = conditions: ref Almela et al 2016, cited from earlier work; for HepG2 cytoxicity (Pf GCT ATP screen): HepG2 value reported with Pf GCT ATP screen
[4] = system: P. falciparum late stage (stages IV-V) gametocytes; assay: P. falciparum late stage gametocyte ATP depletion assay (Pf GC-ATP); conditions: 1: YES, 0: NO
[5] = system: P. berghei ookinete development; conditions: primary screen at 1 μM
[6] = HepG2 cytotoxicity unified across screens, >25 set to 25.00
[7] = P. falciparum late stage gametocyte ATP assay, TCAMS screen
[8] = reported with the Pf GCT ATP screen
[9] = >10-fold selectivity over cytotoxicity
[10] = unified HepG2 value across the three screens
[11] = P. falciparum late stage gametocyte ATP assay
[12] = HepG2 data listed with Pf GCT ATP screen
[13] = HepG2 cytotoxicity unified across screens, bounds (>) given as plain numbers

Row | Structure (SMILES) | Unified cytotox (HepG2 cells [1]; [6]) [µM] | pIC50 [2, 7] | Is compound selective in assay? Pf GC-ATP active? [4, 9] | pIC50 [2, 11] | HepG2 cytoxicity (HepG2 cells [3]; [12]) [µM] | Is compound selective in assay? Pf GC-ATP active? [4] | also measured
1 | COc1cc2c(c(Cl)c1OC)CCN(C(=O)C(F)(F)F)CC2c1ccccc1 (centres unmarked) [TCMDC-132071] | 25.00 | 5.71 | 1 (1: YES) |  |  |  | HepG2 cytoxicity (HepG2 cells [3]; [8]): >25 µM
2 | CCNC1=NC2=C(CC(C(C)(C)C)CC2)C2(CCC(C(C)(C)C)CC2)S1.Cl (centres unmarked) [TCMDC-131288] |  |  |  | 5.52 | 14.3 | 0 (0: NO) | Unified cytotox (HepG2 cells [1]; [10]): 14.30 µM
3 | CC(C)c1ccc(NC(=S)NN=Cc2ccccn2)cc1 [TCMDC-125520] |  |  |  | 8.00 | 12.8 | 1 (1: YES) | Unified cytotox (HepG2 cells [1]; [10]): 12.80 µM
4 | CCCCCOc1ccc(C(O)C(CCC(CN2CCCCCC2)C(O)c2ccc(OCCCCC)cc2)CN2CCCCCC2)cc1.Cl (centres unmarked) [TCMDC-124174] |  |  |  |  |  | 0 (0: NO) | Unified cytotox (HepG2 cells [1]; [13]): 6.80 µM; pIC50 ([2]; TCAMS library screen): 5.92; HepG2 cytoxicity (Pf GCT ATP screen) (HepG2 cells [3]): 6.8 µM
5 | CC(C)CNCc1cccc(-c2ccc(CN(CCCN3CCN(C)CC3)C(=O)CCC3CCCC3)cc2)c1.O=C(O)C(F)(F)F [TCMDC-140558] | 25.00 | 6.15 | 1 (1: YES) |  |  |  | HepG2 cytoxicity (HepG2 cells [3]; [8]): >25 µM
6 | CN1CCC(N(Cc2ccc(-c3ccc(Cl)cc3)cc2)C(=O)Cn2c(CCc3cccc(F)c3F)cc(=O)c3ccccc32)CC1.O=C(O)C(O)C(O)C(=O)O [TCMDC-141357] | 6.70 | 5.46 | 0 (0: NO) |  |  |  | % inhibition, Replicate A [5]: 22.22%; % inhibition, Replicate B [5]: 55.97%
7 | COc1ccc(C[C@H](N)C(=O)N[C@H]2[C@@H](O)[C@H](n3cnc4c(N(C)C)ncnc43)O[C@@H]2CO)cc1.Cl [TCMDC-123927] |  |  |  |  |  | 0 (0: NO) | Unified cytotox (HepG2 cells [1]; [13]): 2.69 µM; pIC50 ([2]; TCAMS library screen): 6.19; HepG2 cytoxicity (Pf GCT ATP screen) (HepG2 cells [3]): 2.69 µM
8 | CCCCCCCn1c(=N)n(CC(O)c2ccc(Cl)c(Cl)c2)c2ccccc21.Cl (centres unmarked) [TCMDC-124065] |  |  |  |  |  | 0 (0: NO) | Unified cytotox (HepG2 cells [1]; [13]): 6.00 µM; pIC50 ([2]; TCAMS library screen): 5.69; HepG2 cytoxicity (Pf GCT ATP screen) (HepG2 cells [3]): 6 µM
9 | Cc1ccc(-n2nc(-c3ccccc3)c3cc(C(=O)NCCN)sc32)cc1 [TCMDC-124776] |  |  |  |  |  | 0 (0: NO) | Unified cytotox (HepG2 cells [1]; [13]): 7.83 µM; pIC50 ([2]; TCAMS library screen): 5.95; HepG2 cytoxicity (Pf GCT ATP screen) (HepG2 cells [3]): 7.83 µM
10 | Cl.N=c1n(CCN2CCCCC2)c2ccccc2n1CC(O)c1ccc(Cl)c(Cl)c1 (centres unmarked) [TCMDC-124064] |  |  |  |  |  | 0 (0: NO) | Unified cytotox (HepG2 cells [1]; [13]): 5.20 µM; pIC50 ([2]; TCAMS library screen): 5.49; HepG2 cytoxicity (Pf GCT ATP screen) (HepG2 cells [3]): 5.2 µM
11 | CCN(CC)/C(=N\CCCCCC/N=C(\NC(=N)c1ccc(Cl)cc1)N(CC)CC)NC(=N)c1ccc(Cl)cc1 [TCMDC-131806] |  |  |  | 6.08 | 43.6 | 1 (1: YES) | Unified cytotox (HepG2 cells [1]; [10]): 43.60 µM
12 | CCN(CC)Cc1cc(Nc2c3ccc(Cl)cc3nc3cccc(OC)c23)ccc1O.Cl [TCMDC-139222] | 25.00 | 6.00 | 1 (1: YES) |  |  |  | HepG2 cytoxicity (HepG2 cells [3]; [8]): >25 µM
13 | SC(=Nc1ccc2c(c1)OCCO2)NN=Cc1ccccn1 [TCMDC-132009] |  |  |  | 6.08 | 3.28 | 0 (0: NO) | Unified cytotox (HepG2 cells [1]; [10]): 3.28 µM
14 | Nc1ncc(-c2ccc3nccc(-c4ccncc4)c3c2)cc1S(=O)(=O)N1CCCCC1 [TCMDC-134265] | 25.00 | 5.68 | 1 (1: YES) |  |  |  | HepG2 cytoxicity (HepG2 cells [3]; [8]): >25 µM
15 | CCN(CC)/C(=N\C(=N)NCCCCCCNC(=N)/N=C(\Nc1ccc(Cl)cc1)N(CC)CC)Nc1ccc(Cl)cc1 [TCMDC-131807] |  |  |  | 6.43 | >25 | 1 (1: YES) | 
16 | CCN(CC)/C(=N/C(=N)Nc1ccc(Cl)cc1)NCCCCCCCCN/C(=N\C(=N)Nc1ccc(Cl)cc1)N(CC)CC [TCMDC-131812] |  |  |  | 5.99 | >25 | 1 (1: YES) | 
17 | O=C(Nc1nc(-c2ccccn2)cc2ccccc12)c1cccc(Cl)c1 [TCMDC-123886] |  |  |  |  |  | 1 (1: YES) | pIC50 ([2]; TCAMS library screen): 6.30; HepG2 cytoxicity (Pf GCT ATP screen) (HepG2 cells [3]): >25 µM
18 | COc1ccc(NC(=O)C2c3ccccc3C(=O)N(CC(C)C)C2c2cccs2)cc1OC (centres unmarked) [TCMDC-125289] |  |  |  | 6.37 | >25 | 1 (1: YES) | 
19 | CCOc1c(CCNCCCCNCCc2ccc3ccccc3c2OCC)ccc2ccccc12.CS(=O)(=O)O [TCMDC-137759] |  | 6.77 | 1 (1: YES) |  |  |  | HepG2 cytoxicity (HepG2 cells [3]; [8]): <1.56 µM

Row | Structure (SMILES) | Unified cytotox (HepG2 cells [1]; [6]) [µM] | pIC50 [2, 7] | Is compound selective in assay? Pf GC-ATP active? [4, 9] | pIC50 [2, 11] | HepG2 cytoxicity (HepG2 cells [3]; [12]) [µM] | Is compound selective in assay? Pf GC-ATP active? [4] | also measured
20 | Cc1ccc(C)c(NC(=O)CC2C(=O)N(c3ccccc3)C(=S)N2Cc2ccco2)c1 (centres unmarked) [TCMDC-124000] |  |  |  |  |  | 1 (1: YES) | pIC50 ([2]; TCAMS library screen): 5.89; HepG2 cytoxicity (Pf GCT ATP screen) (HepG2 cells [3]): >10 µM
21 | CCc1nn2c(Nc3ccncc3)cc(C)nc2c1-c1ccccc1 [TCMDC-124917] |  |  |  | 5.72 | >25 | 1 (1: YES) | 
22 | Cc1nn(CC(C)C)c2sc(C(=O)N3CCN(S(=O)(=O)c4ccc(C#N)cc4)CC3)cc12 [TCMDC-125045] |  |  |  | 5.68 | >25 | 1 (1: YES) | 
23 | Cl.N=C(N)NN=Cc1c2ccccc2c(Cl)c2cc(Cl)ccc12 [TCMDC-137903] | 7.50 | 5.63 | 0 (0: NO) |  |  |  | % inhibition, Replicate A [5]: 53.67%; % inhibition, Replicate B [5]: 40.83%
24 | CCN(CC)/C(=N/C(=N)NCc1ccc(Cl)cc1)NCCCCCCN/C(=N\C(=N)NCc1ccc(Cl)cc1)N(CC)CC [TCMDC-131817] |  |  |  | 6.10 | >25 | 1 (1: YES) | 
25 | Cc1cc(Nc2ccncc2)n2nc(C)c(-c3ccccc3Cl)c2n1 [TCMDC-124918] |  |  |  | 5.71 | >25 | 1 (1: YES) | 
26 | CC(C)CCNCc1ccc(OCc2cccc(COc3ccc(CNCCC(C)C)cc3I)c2)c(I)c1.Cl [TCMDC-137274] | 5.30 | 6.43 | 1 (1: YES) |  |  |  | 
27 | CCc1c(CCNCCCC(C)CCNCCc2ccc(OC)c(OC)c2CC)ccc(OC)c1OC.Cl (centres unmarked) [TCMDC-132065] | 6.00 | 6.35 | 1 (1: YES) |  |  |  | 
28 | COc1cc(Br)c(S(=O)(=O)n2cc(CN3CCC(N)CC3)c3cc(Cl)ccc32)cc1OC.O=C(O)C(F)(F)F [TCMDC-136384] | 6.70 | 5.62 | 0 (0: NO) |  |  |  | 
29 | CCN(CC)CCN(Cc1ccc(-c2ccc(C(F)(F)F)cc2)cc1)C(=O)c1ccc(-c2ccc(NC(=O)OC)cc2C)cc1 [TCMDC-141558] | 5.40 | 5.43 | 0 (0: NO) |  |  |  | 
30 | COc1cccc(C(=O)NC(C=Cc2ccccc2)c2cc(Cl)c3cccnc3c2O)c1 (centres unmarked) [TCMDC-125550] |  |  |  | 6.23 | >25 | 1 (1: YES) | 
31 | COc1cccc(CCc2c(CCNCCCCCCNCCc3ccccc3)ccc(OC)c2OC)c1.Cl [TCMDC-132105] | 7.70 | 6.74 | 1 (1: YES) |  |  |  | 
32 | CCN(CC)CCOc1ccc(C(O)(C#CC(O)(c2ccc(C)cc2)c2ccc(OCCN(CC)CC)cc2)c2ccc(C)cc2)cc1 (centres unmarked) [TCMDC-137198] | 1.62 | 6.85 | 1 (1: YES) |  |  |  | 
33 | CCCCCCNC(=N)c1ccc(OCCCCCOc2ccc(C(=N)NCCCCCC)cc2)cc1.Cl [TCMDC-137619] | 5.39 | 6.51 | 1 (1: YES) |  |  |  | 
34 | CN1CCN(CCCN(Cc2ccc(-c3ccc(CNC4CCCC4)cc3)cc2)C(=O)CCC2CCCC2)CC1.O=C(O)C(F)(F)F [TCMDC-140560] | 6.00 | 6.28 | 1 (1: YES) |  |  |  | 
35 | Nc1c2ccccc2nc2ccc(-c3ccccc3)cc12 [TCMDC-132030] | 3.30 | 6.31 | 0 (0: NO) |  |  |  | 
36 | CC(C)CC(=O)N(Cc1ccc(-c2ccc(CNC3Cc4ccccc4C3)cc2)cc1)C1CCNCC1.O=C(O)C(F)(F)F [TCMDC-141449] | 6.20 | 6.20 | 0 (0: NO) |  |  |  | 
37 | Cc1cc(Nc2ccncc2)n2nc(C)c(-c3ccc(Cl)cc3)c2n1 [TCMDC-124478] |  |  |  |  |  | 1 (1: YES) | pIC50 ([2]; TCAMS library screen): 6.04; HepG2 cytoxicity (Pf GCT ATP screen) (HepG2 cells [3]): >50 µM
38 | O=C(O)C(F)(F)F.c1cc(CN2CCC(CCN3CCCCC3)CC2)cc(-c2cccc(-c3nc4ccccc4[nH]3)c2)c1 [TCMDC-133920] | 13.10 | 6.54 | 1 (1: YES) |  |  |  | 
